Results from ChEMBL document CHEMBL3792319, “Synthesis and antitubercular activity of 1,2,4-trisubstitued piperazines” (Bioorg Med Chem Lett, 2016).
≈ marks a conversion by molar mass, not a printed value.

Legend:
Format in all cases: functional
[1] = system: Mycobacterium tuberculosis; assay: Antitubercular activity against isoniazid-resistant Mycobacterium tuberculosis H37Rv isolate 1 by two-fold serial dilution method
[2] = system: Mycobacterium tuberculosis; assay: Antitubercular activity against rifampicin-resistant Mycobacterium tuberculosis H37Rv isolate 1 by two-fold serial dilution method
[3] = system: Mycobacterium tuberculosis; assay: Antitubercular activity against fluoroquinolone-resistant Mycobacterium tuberculosis H37Rv isolate 1 by two-fold serial dilution method
[4] = system: Mycobacterium tuberculosis; assay: Antitubercular activity against isoniazid-resistant Mycobacterium tuberculosis H37Rv isolate 2 by two-fold serial dilution method
[5] = system: Mycobacterium tuberculosis; assay: Antitubercular activity against rifampicin-resistant Mycobacterium tuberculosis H37Rv isolate 2 by two-fold serial dilution method

SMILES	MIC [1]	MIC [2]	MIC [3]	MIC [4]	MIC [5]
CNC[C@@H](Cc1ccccc1)N1CCN(CCC23CC4CC(CC(C4)C2)C3)[C@H](C(C)C)C1	1.8 µM (≈ 0.788 µg/mL)	14 µM (≈ 6.13 µg/mL)	14 µM (≈ 6.13 µg/mL)	–	–
CCC(C)[C@@H]1CN([C@@H](CNC)Cc2ccccc2)CCN1CCC12CC3CC(CC(C3)C1)C2 (stereo partly drawn)	38 µM (≈ 17.2 µg/mL)	37 µM (≈ 16.7 µg/mL)	28 µM (≈ 12.6 µg/mL)	41 µM (≈ 18.5 µg/mL)	48 µM (≈ 21.7 µg/mL)
CNC[C@@H](Cc1ccccc1)N1CCN(CCC23CC4CC(CC(C4)C2)C3)CC1	57 µM (≈ 22.6 µg/mL)	39 µM (≈ 15.4 µg/mL)	38 µM (≈ 15 µg/mL)	68 µM (≈ 26.9 µg/mL)	83 µM (≈ 32.8 µg/mL)
CNC[C@@H](Cc1ccccc1)N1CCN(CCC(c2ccccc2)c2ccccc2)CC1	74 µM (≈ 31.6 µg/mL)	172 µM (≈ 73.6 µg/mL)	70 µM (≈ 29.9 µg/mL)	27 µM (≈ 11.5 µg/mL)	71 µM (≈ 30.4 µg/mL)
